Tests used:
[1] = system: skin tumor formation; settings: topical application; cited from earlier work
[2] = system: DMBA induced mouse skin tumor development; assay: chronic animal bioassay: DMBA induced mouse skin tumor development, topical treatment; format: in vivo, female Swiss albino mice; settings: DMBA 200 ug/kg; Cag 240 mg/kg, NA 240 mg/kg, BA 8 mmoles/kg body wt; topical twice weekly; terminated after 30 weeks; 15 animals each group
Description: We have used female Swiss albino mice from the inbred colony of Industrial Toxicology Research Center, Lucknow, India. The treatment schedule was followed as described earlier (22). Animals were shaved on the back (2×2 cm) in the interscapular region using surgical clippers. Only the animals in the resting phase of hair growth were selected for the study. For this chronic animal bioassay, we have taken 135 animals and divided them into 9 groups, consisting of 15 animals each. Group 1 served as negative control group where animals received acetone/DMSO only. For the entire study we have used 7,12-Dimethylbenz (a) anthracene (DMBA) as a skin carcinogen. DMBA was used at the dose of 200 μg/kg body wt in 0.1 ml acetone. In group 3, animals were treated with DMBA followed by concomitant application of Calcium D-glucarate (240 mg/kg body wt in 0.1 ml of DMSO). […] In group 5, animals were treated with DMBA followed by concomitant application of Butyric acid (8 mmoles in 0.1 ml of acetone). […] In group 7, animals were treated with DMBA followed by a concomitant application of Calcium D-glucarate, Butyric acid. […] All the treatments were applied topically. […] Animals were inspected regularly for tumor incidence, baldness, acne, poor health, sickness etc. Experiment was terminated after 30 weeks.
Experimental Design (15 Animals Each Group)

[3] = system: skin papilloma formation; settings: topical, cited from earlier work; for rate of survival: SENCAR mice; for skin papilloma formation: from the ninth week of promotion
[4] = system: mouse skin papillomas; settings: at higher concentrations; cited from earlier work

SMILES | Cumulative no. of tumor [2] | No. of tumo bearing animal/Initial No. of animals [2] | Onset of firs tumor [in weeks] [2] [weeks] | also measured
CC(C)=CCOc1ccc2ccc(=O)oc2c1 [7-Isopentenyloxucoumarin] |  |  |  | skin tumor formation [1]: suppressed
O=C([O-])[C@@H](O)[C@@H](O)[C@H](O)[C@@H](O)C(=O)[O-].[Ca+2] [DMBA + CaG, Calcium D-glucarate] | 12 | 10/15 | 18 | 
NC(=O)c1cccnc1 [DMBA + NA, Nicotinamide] | 09 | 08/15 | 21 | 100% tumorigenesis [in weeks] [2]: 0 weeks
Cc1c2ccccc2c(C)c2c1ccc1ccccc12 [DMBA, 7,12-Dimethylbenz (a) anthracene] | 62 | 15/15 | 15 | 100% tumorigenesis [in weeks] [2]: 28 weeks
C=CCSSCC=C [diallyl disulfide] |  |  |  | rate of survival [3]: significantly increased; skin papilloma formation [3]: significantly inhibited
C=CCSCC=C [diallyl sulfide] |  |  |  | rate of survival [3]: significantly increased; skin papilloma formation [3]: significantly inhibited
CC1=C(/C=C/C(C)=C/C=C/C(C)=C/C(=O)O)C(C)(C)CCC1 [retinoic acid] |  |  |  | cytotoxicity [4]: cytotoxic
